These molecules were tested on P. falciparum 3D7 growth, pLDH absorbance (assay: blood-stage malaria parasite growth potency – strain 3D7, dose response (AID 2305)).

Row | Compound | IC50
1 | O=C(N[C@H]1CCN(CCc2ccc(O[C@H]3CCNC3)c(Cl)c2)C1)c1ccc(Cl)c(Cl)c1 | 890 nM
2 | Nc1nc2c(ncn2COC2COP(=O)(O)OC2)c(=O)[nH]1 (stereo not given) | 450 nM
3 | CCOc1cc(C)ccc1C1CCN(CCCCNC(=O)c2cccc(-c3ccc(C(F)(F)F)cc3)c2)CC1 | 940 nM
4 | Nc1ncnc2cc(-c3cccc(S(N)(=O)=O)c3)sc12 | 150 nM
5 | COc1ccc2nc(NC3=NC(c4ccccn4)(c4ccccn4)C(=O)N3C)[nH]c2c1 | 590 nM
6 | CCNc1cc(C)nc(Nc2ccc(NC(=O)c3cccs3)cc2)n1 | 1020 nM
7 | CCNc1cc(C(=O)N[C@@H](Cc2ccccc2)[C@H](O)CNC23CC4CC(CC(C4)C2)C3)cc(N2CCCCS2(=O)=O)c1 | 220 nM
8 | N#CCCN1CCN(Cc2ccc(-c3cccc(-c4nc5ccc(F)cc5[nH]4)c3)cc2)CC1 | 970 nM
9 | COc1cc2nc(NCCC(C)C)n3nc(-c4ccccc4)nc3c2cc1OC | 420 nM
10 | CCc1ccc(C2CCN(CCCCNC(=O)c3ccc(NC(=O)c4ccc(Cl)cc4)cc3)CC2)c(OCC(=O)OC)c1 | 1030 nM
11 | COc1ccc(CCN(C)CCCCNC(=O)c2ccc(NC(=O)c3ccc(Cl)cc3)cc2)c(OC)c1 | 920 nM
12 | COc1ccc2ccccc2c1CNCCCCCCNCc1c(OC)ccc2ccccc12 | 710 nM
13 | Cn1c(=O)c2cc(C(=O)NCCCN3CCCCCC3)sc2c2ccccc21 | 690 nM
14 | Cc1cccc2[nH]c(-c3cccc(-c4cccc(CNC(C)C)c4)c3)nc12 | 340 nM
15 | O=[N+]([O-])c1nc(Br)n(Cc2ccc(Cl)cc2)n1 | 360 nM
16 | O=C(c1ccc(-c2ccccn2)s1)N1CCc2cc3nccc(N4CCN5CCC[C@H]5C4)c3cc21 | 760 nM
17 | CCn1ccc2c(N3CCCC3=O)cc(C(=O)N[C@@H](Cc3ccccc3)[C@H](O)CNC(C)(C)CCCC(C)C)cc21 | 350 nM
18 | C=C(C)Cn1cc(C2CCN(CCCCNC(=O)c3sc(-c4ccc(Cl)cc4Cl)nc3CO)CC2)c2ccccc21 | 1150 nM
19 | O=C(Nc1cccc(C(F)(F)F)c1)c1cccc(S(=O)(=O)NCC2CCCN(Cc3ccccc3)C2)c1 (stereo not given) | 1100 nM
20 | Cc1ccc(C)c(Cn2ccc3nc(N)nc(N)c32)c1 | 300 nM
21 | CCn1c(-c2nonc2N)nc2c(-c3cccc(Cl)c3)ncc(OCCCNCCc3cnc[nH]3)c21 | 980 nM
22 | CN1CCCC1CNS(=O)(=O)c1ccc(C(=O)NCC2CC2)cc1 (stereo not given) | 170 nM
23 | Cc1ccc(NC(=O)c2ccc3ncccc3c2)cc1OC1CCN(C(C)C)C1 (stereo not given) | 990 nM
24 | CCCCCCn1c(Sc2ccc(C#N)c([N+](=O)[O-])c2)nnc1-c1cccs1 | 710 nM

Row | Compound | IC50
25 | COc1cc(-c2nc3ccc(N4CCN(C)CC4)cc3[nH]2)cc(OC)c1OC | 1270 nM
26 | CCCN(CCC)CCCCC(C)Nc1c2ccc(Cl)cc2nc2ccc(OC)cc12 (stereo not given) | 140 nM
27 | Cc1nc(-c2cccc(C(F)(F)F)c2)n2nc(Nc3ccc(OCCN4CCCC4)cc3)ncc12 | 750 nM
28 | Cc1ccc(Oc2ccc(CNc3nc(Nc4cccc(F)c4)nc(Nc4cccc(F)c4)n3)cc2)cc1 | 1210 nM
29 | COc1ccc(C(=O)N[C@@H](CC(C)C)C(=O)N[C@H](/C=N/NC(=O)c2ccccc2)CCc2ccccc2)cc1OCCN1CCOCC1 | 170 nM
30 | Cc1ccc(NC(=O)c2cc(Br)cc(N3CCC(N(C)C)CC3)c2)cc1F | 840 nM
31 | Cc1ccc(C(=O)Nc2ccc(C)c(OC3CCN(Cc4ccco4)C3)c2)cc1 (stereo not given) | 970 nM
32 | COc1ccc(CC2(c3ccc(F)cc3)N=C(N)N(CCCc3ccccc3)C2=O)cc1 (stereo not given) | 610 nM
33 | O=C(/C=C/c1ccc(F)cc1)NC1CCC(CCN2CCCN(c3ccc(C(F)(F)F)cn3)CC2)CC1 (stereo not given) | 1080 nM
34 | c1ccc(CCNCc2ccc(-c3cccc(CNc4ccc5ncccc5c4)c3)cc2)cc1 | 930 nM
35 | CN1CCN(c2ccc(Nc3c4ccccc4nc4ccccc34)cc2)CC1 | 640 nM
36 | CC(=O)Nc1ccc(C(=O)Nc2cccc(-c3cccc(-c4nc5c(C)cccc5[nH]4)c3)c2)cn1 | 60 nM
37 | Cc1ccc(Nc2nc(C)cc(N3CCN(CCc4ccccc4)CC3)n2)cc1 | 970 nM
38 | COc1cc2nc(N(C)Cc3cccc(I)c3)nc(N)c2cc1OC | 860 nM
39 | CN(C)c1ccc2nc(N)nc(N)c2c1Cl | 470 nM
40 | O=C(Nc1ccc(S(=O)(=O)N2CCCCC2)cc1)c1cc(-c2cc(Cl)ccc2O)n[nH]1 | 810 nM
41 | CC(CN(C)C)C(=O)Nc1ccc(-c2csc(-c3nc4ccccc4[nH]3)c2)cc1 (stereo not given) | 1320 nM
42 | CCn1cc(-c2nc(-c3cc(OC)cc(OC)c3)no2)c(=O)c2ccccc21 | 340 nM
43 | CC(=O)Nc1cccc(C(=O)Nc2nc3ccc(-c4cc(=O)[nH]c(Nc5ccccc5Cl)n4)cc3[nH]2)c1 | 690 nM
44 | O=C(C=Cc1ccc(Cl)c(Cl)c1)NCCCCCN1CCCC(CCCNC(=O)c2cccs2)C1 (stereo not given) | 1300 nM
45 | Cc1nc(C(=O)N2CCCC[C@H]2CNC(=O)c2ccc(-c3ccc(N4CCCC4=O)cc3C)cc2)c(-c2ccc(F)cc2)s1 | 460 nM
46 | FC(F)(F)c1ccc2nc(-c3ccc(-c4cccc(CNCCN5CCNCC5)c4)s3)[nH]c2c1 | 1040 nM
47 | O=C(NC1CCN(CC2(c3ccc(Cl)cc3)CCC2)CC1)c1cscn1 | 530 nM
48 | CC(C)CNCc1cccc(-c2cccc(CN(CCCN3CCN(C)CC3)C(=O)/C=C/c3ccccc3)c2)c1 | 930 nM

Row | Compound | IC50
49 | O=C(Nc1cccc(F)c1)c1ccc(C(=O)NC2CCN(CC3CCCCC3)CC2)cc1 | 860 nM
50 | O=C(CCc1ccccc1)NC(c1ccc(Cl)cc1)c1ccc2cccnc2c1O (stereo not given) | 850 nM
51 | CN1CCC(N(Cc2ccc(-c3ccc(Cl)cc3)cc2)C(=O)Cn2c(CCc3cccc(F)c3F)cc(=O)c3ccccc32)CC1 | 860 nM
52 | CC1(C)C[C@@H]2C[C@@](C)(CN2C(=O)c2cc(C(C)(C)C)nn2Cc2ccccc2)C1 | 1090 nM
53 | CN(C)CCOc1cc(NC(=O)/C=C/c2cccc3ccccc23)ccc1I | 1260 nM
54 | NCC1CCCN1Cc1ccc(-c2ccc(-c3nc4ccc(C(F)(F)F)cc4[nH]3)s2)cc1 (stereo not given) | 790 nM
55 | COc1ccc(-c2cc(C(=O)N3CCc4ccccc43)c3ccccc3n2)cc1OC | 330 nM
56 | FC(F)(F)c1ccc2nc(-c3ccc(-c4cccc(CNCc5ccccc5)c4)s3)[nH]c2c1 | 150 nM
57 | O=C(c1cc(C(=O)Nc2ccccc2F)c(=O)n(-c2ccccc2F)c1)c1cc(Cl)ccc1O | 710 nM
58 | O=C(/C=C/c1ccc(Cl)c(Cl)c1)NCCCCCN1CCC(NC(=O)NC2CCCCCC2)CC1 | 460 nM
59 | COc1ccc(NC(=O)CCNc2ccnc(NCCc3ccc(F)cc3)n2)cc1 | 990 nM
60 | CC(C)COc1ccc(Cl)cc1Nc1nc(-c2nc3ccccc3[nH]2)cs1 | 880 nM
61 | O=C(Nc1ccc2c(c1)CCC2)c1ccc(CN2CCCN(Cc3cccc(O)c3)CC2)cc1 | 890 nM
62 | Brc1ccsc1-c1nc(NCCC(c2ccccc2)c2ccccc2)no1 | 1080 nM
63 | Fc1ccc2ncc(Cl)c(CCN3CCC(NCc4cc5c(cn4)OCCO5)CC3)c2c1 | 880 nM
64 | CC[C@H]1CN2CC[C@H]1C[C@H]2[C@H](O)c1cc(Cl)nc2ccc(OC)cc12 | 580 nM
65 | O=C(NCC1CCC(C(=O)NCCN2CCCCC2)CC1)c1ccc(O)c(-c2ccc(Cl)c(Cl)c2)c1 (stereo not given) | 1170 nM
66 | NC1CCN(c2nc(NCCc3ccc(O)cc3)nc(NCc3ccccc3-c3ccc(C(F)(F)F)cc3)n2)CC1 | 750 nM
67 | O=C(NC1CCN(Cc2ccc3c(c2)OCCO3)CC1)c1ccc(-c2cccc(C(F)(F)F)c2)s1 | 1830 nM
68 | Cc1cccc2[nH]c(-c3ccc(-c4ccc(NC(=O)NCc5cccc(F)c5)cc4)cc3)nc12 | 1300 nM
69 | CCc1cn2c3c(cc(C(=O)N[C@@H](Cc4ccccc4)[C@H](O)CNC4CCOCC4)cc13)N(C)S(=O)(=O)C2 | 90 nM
70 | COc1ccc2ccccc2c1CCCCN1CCN(CC(c2ccc(F)cc2)N2CCC(N3CCCC3)CC2)CC1 (stereo not given) | 620 nM
71 | O=c1cc(-c2cccc(C(F)(F)F)c2)nc(Nc2ccc(Cl)c(Cl)c2)[nH]1 | 760 nM
72 | COc1ccc(NC(=O)c2cccc(Br)c2)cc1N1CCN(CCCCCCCN2CCN(c3cc(NC(=O)c4cccc(Br)c4)ccc3OC)CC2)CC1 | 180 nM

Row | Compound | IC50
73 | CC(C)C[C@H](NC(=O)c1ccc(F)cc1)C(=O)N[C@H](/C=N/NC(=O)c1ccccc1)CCc1ccccc1 | 810 nM
74 | Cc1cc2ncn(-c3nccc(NCc4ccc(F)cc4)n3)c2cc1C | 890 nM
75 | COc1cc(F)c2ncc(C#N)c(CCN3CCC(NCc4ccc5c(c4)OCCO5)CC3)c2c1 | 430 nM
76 | CCN(CC)CCN(Cc1ccc(-c2ccc(C(F)(F)F)cc2)cc1)C(=O)Cn1c(CCc2cccc(F)c2F)cc(=O)c2c1CCCC2 | 870 nM
77 | Oc1ccc(CCNc2nc(NCc3cccc(-c4cc(C(F)(F)F)ccc4Cl)c3)nc(N3CCNCC3)n2)cc1 | 1780 nM
78 | Cc1cc(C)cc(CC(=O)N2CCC(n3c(C)nc4ccc(C)cc43)CC2)c1 | 530 nM
79 | N#Cc1cc([N+](=O)[O-])ccc1-n1nc(-c2cccc(Cl)c2)n(Cc2ccco2)c1=S | 200 nM
80 | CC(C)OC(=O)c1ccc(NC(=O)N[C@@H](Cc2ccc(O)cc2)C(=O)NC2C[C@H]3CC[C@@H](C2)N3Cc2ccccc2)cc1 (stereo not given in full) | 1080 nM
81 | CC(CN(C)C)C(=O)Nc1ccc(-c2cccc(-c3nc4ccc(C(F)(F)F)cc4[nH]3)c2)cc1 (stereo not given) | 210 nM
82 | O=C(c1cccs1)N1N=C(c2cccs2)CC1c1cccc([N+](=O)[O-])c1 (stereo not given) | 820 nM
83 | CCC1(CC)CN(c2ccccc2)c2ccc(O)cc2S(=O)(=O)C1CC(C)C (stereo not given) | 400 nM
84 | COc1ccc(OC)c(-c2cccc(-c3cccc(NC(=O)c4ccc([N+](=O)[O-])o4)c3)n2)c1 | 370 nM
85 | Cn1cc(CN2CCC(OC(c3ccccc3)c3ccc(Cl)cc3)CC2)cn1 (stereo not given) | 840 nM
86 | COc1ccc2nccc([C@@H](O)CN3CCC(NCc4cc5c(F)ccc(F)c5[nH]4)CC3)c2n1 | 700 nM
87 | CC(C(=O)Nc1ccc(Br)cc1Br)N1CCN(C(=O)c2ccco2)CC1 (stereo not given) | 750 nM
88 | COc1cc2c(cc1O)[C@@H]1[C@H](O)[C@@H](O)C=C3CCN(C2)[C@H]31 | 990 nM
89 | CN(CCO)Cc1ccc(-c2ccc(NS(=O)(=O)c3cccc4cccnc34)cc2)cc1 | 790 nM
90 | COc1ccccc1C(=O)Nc1cccc(N2CCC(NCc3ccc(-n4cccn4)cc3)CC2)c1 | 1190 nM
91 | O=c1cc(NCCCCNCc2cccc(Cl)c2)[nH]c2ccccc12 | 740 nM
92 | CN(C)CCC1CCN(CCS(=O)(=O)c2cccc(Nc3ccc(-c4cccc(F)c4)cn3)c2)CC1 | 1070 nM
93 | CN1CCC[C@@H](Oc2cc3c(cc2Br)CCN3C(=O)Nc2ccc(-c3ccncc3)c(Cl)c2)C1 | 620 nM
94 | COc1ccc(NC(=O)[C@H](CC(C)C)Nc2cc(C)nc(NCC3CCCCC3)n2)cc1 | 1100 nM
95 | CCCCN(CCCC)Cc1cc(Nc2ccnc3cc(Cl)ccc23)ccc1O | 20 nM

Reference: PubChem BioAssay AID2305 (GlaxoSmithKline (GSK), 2010)
